Where two headings read alike, the source gives them in different places.

Assay [1] has as its target T1, MraY from S. aureus (Staphylococcus aureus, UniProt Q2FZ93).
T1 construct: made in house; host or cells: E. coli Lemo21
As to the kind of experiment: Fluorescence-based in vitro MraY inhibition assay (dansylated Park's nucleotide, crude membrane preparation). Type of assay: biochemical. To be noted: for IC50: crude membrane preparation of MraY heterologously overexpressed in E. coli, triplicates, mean ± standard deviation, read-out: IC50, in vitro inhibitory activity against MraY from S. aureus; for fold weaker MraY inhibition than (6′S)-counterpart: (6′R)-derivatives 12 and 13 vs. 10 and 11, respectively. The procedure: Target compounds 10–17 were tested in vitro for their inhibitory potency towards the bacterial target enzyme MraY. Therefore, a previously reported fluorescence-based assay was employed, using dansylated Park’s nucleotide and MraY from S. aureus (recombinantly overexpressed in E. coli).
The overexpression of MraY was performed as described before. A plasmid containing the mraY gene was transformed into E. coli Lemo21 cells, which were plated on lysogeny broth (LB) agar containing kanamycin (50 μg/mL) and chloramphenicol (30 μg/mL). A single colony was picked to induce an overnight culture (10 mL) of LB media containing kanamycin (50 μg/mL) and chloramphenicol (30 μg/mL), which was incubated at 37 °C and 180 rpm for 16 h. A culture of LB media (500 mL) containing kanamycin (50 μg/mL), chloramphenicol (30 μg/mL), and L-rhamnose (1 mM) was inoculated with the overnight culture (500 μL) and then grown at 37 °C and 180 rpm to OD600 0.6. Subsequently, MraY expression was induced with IPTG (1 mM) and the culture was incubated at 37 °C and 180 rpm for 4 h. Cells were then centrifuged and the pellet was resuspended in buffer A (50 mM Tris-HCl buffer pH 7.5, 1 mM MgCl2, 2 mM β-mercaptoethanol, 15 mL overall). Egg white lysozyme (spatula tip), DNAse I (spatula tip), and cOmplete^TM EDTA-free protease inhibitor cocktail (one tablet) were added. Cells were lysed using sonication and then incubated at 4 °C for 30 min. The lysate was centrifuged and the supernatant was centrifuged again. The resultant pellet was resuspended in buffer A (1.7 mL), flash frozen in liquid nitrogen and stored at −80 °C (aliquots of 20 μL). This MraY-containing crude membrane preparation (overall protein concentration ~20.5 mg/mL as determined by OD280) was diluted with water (final overall protein concentration 1 mg/mL) and then directly used for MraY activity assays without further purification.
The assay was performed as described before. The crude membrane preparation of MraY from S. aureus (1 μL, vide supra) was added to a mixture of undecaprenyl phosphate (50 μM), dansylated Park′s nucleotide (7.5 μM), and the tested compound (at varying concentrations) in buffer (100 mM Tris-HCl buffer pH 7.5, 200 mM KCl, 10 mM MgCl2, 0.1% Triton X-100, 20 μL overall). Fluorescence of the assay mixtures over time was monitored at λex = 355 nm and λem = 520 nm (plate reader, 384-well plate format). MraY activity at a certain inhibitor concentration was determined using linear regression from 0 to 2 min. This measure of activity was plotted against logarithmic inhibitor concentrations and fitted using a sigmoidal fit. This procedure furnished IC50 values with standard deviations.

Assay [2] has as its system E. coli. As to the kind of experiment: Antibacterial activity (MIC) against E. coli. The class given is cell-based. To be noted: Escherichia coli, not active. The procedure: Muraymycin analogues 10–17 were also studied for their antibacterial activities against E. coli, but were not active (MIC > 50 μg/mL).
The target of assay [3] is T1, MraY from S. aureus. On the set-up: method as in PMID 29438582. To be noted: reference compound in Table 1; same value as given in b6; read-out: IC50, in vitro inhibitory activity against MraY from S. aureus; cited from earlier work.

T1 sequence (Q2FZ93 whole entry): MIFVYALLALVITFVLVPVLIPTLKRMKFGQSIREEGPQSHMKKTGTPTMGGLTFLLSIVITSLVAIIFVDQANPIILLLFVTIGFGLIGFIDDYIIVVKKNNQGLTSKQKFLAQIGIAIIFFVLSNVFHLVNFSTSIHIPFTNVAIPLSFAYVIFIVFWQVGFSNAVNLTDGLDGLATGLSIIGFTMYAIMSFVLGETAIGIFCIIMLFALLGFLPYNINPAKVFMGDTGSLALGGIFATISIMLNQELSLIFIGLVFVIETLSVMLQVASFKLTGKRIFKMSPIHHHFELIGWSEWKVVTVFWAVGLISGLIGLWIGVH

In the case of `CC(C)C[C@H](NC(=O)[C@H](CCCCN)NC(=O)N[C@H](C(=O)O)C(C)C)C(=O)NCCCN[C@@H](C(=O)O)[C@H](O)[C@H]1O[C@@H](n2ccc(=O)[nH]c2=O)[C@H](O)[C@@H]1O` [Compound 14, 6′-epi-L-Leu muraymycin analogue], the IC50 in assay [1] was 10 ± 4 µM. Besides, in assay [2], the MIC is above 50 µg/mL.
As to `CC(C)C[C@H](NC(=O)[C@H](CCCCN)NC(=O)N[C@H](C(=O)O)C(C)C)C(=O)NCCCN[C@@H](C[C@H]1O[C@@H](n2ccc(=O)[nH]c2=O)[C@H](O)[C@@H]1O)C(=O)O` [Compound 10, 5′-deoxy-L-Leu muraymycin analogue], in assay [1] (compounds 10 vs. 9, epicapreomycidine replaced by L-lysine, nonhydroxylated L-leucine), the “fold loss in inhibitory potency (MraY) vs. 9” value is ~ 26 fold. The half-maximal inhibitory concentration (IC50) in assay [1] was 2.5 ± 0.6 µM. In assay [2], the MIC was above 50 µg/mL.
In the case of `CC(C)C[C@@H](NC(=O)[C@H](CCCCN)NC(=O)N[C@H](C(=O)O)C(C)C)C(=O)NCCCN[C@H](C(=O)O)[C@@H](O)[C@H]1O[C@@H](n2ccc(=O)[nH]c2=O)[C@H](O)[C@@H]1O` [Compound 17, 5′-epi-D-Leu muraymycin analogue], in assay [1], the IC50 turned out to be 21 ± 4 µM. Besides, in assay [2], the minimal inhibitory concentration (MIC) is above 50 µg/mL.
Take `CC(C)C[C@H](NC(=O)[C@H](CCCCN)NC(=O)N[C@H](C(=O)O)C(C)C)C(=O)NCCCN[C@H](C(=O)O)[C@@H](O)[C@H]1O[C@@H](n2ccc(=O)[nH]c2=O)[C@H](O)[C@@H]1O` [Compound 16, 5′-epi-L-Leu muraymycin analogue]: in assay [1] (16 vs. 17), the “fold more active (MraY) than D-leucine epimer 17” value is ~ 3 fold. In addition, in assay [1], the IC50 stood at 6.2 ± 2.8 µM. The MIC in assay [2] is above 50 µg/mL.
As for `CC(C)[C@H](NC(=O)N[C@H](C(=O)N[C@H](C(=O)NCCCN[C@@H](C[C@H]1O[C@@H](n2ccc(=O)[nH]c2=O)[C@H](O)[C@@H]1O)C(=O)O)[C@@H](O)C(C)C)[C@@H]1CCNC(=N)N1)C(=O)O` [Compound 9], the IC50 in assay [3] is 0.095 ± 0.019 µM.
For `CC(C)C[C@@H](NC(=O)[C@H](CCCCN)NC(=O)N[C@H](C(=O)O)C(C)C)C(=O)NCCCN[C@@H](C[C@H]1O[C@@H](n2ccc(=O)[nH]c2=O)[C@H](O)[C@@H]1O)C(=O)O` [Compound 11, 5′-deoxy-D-Leu muraymycin analogue], in assay [1], the IC50 came out at 2 ± 0.6 µM. The compound further came in with an MIC in assay [2] above 50 µg/mL.
`CC(C)C[C@@H](NC(=O)[C@H](CCCCN)NC(=O)N[C@H](C(=O)O)C(C)C)C(=O)NCCCN[C@@H](C(=O)O)[C@H](O)[C@H]1O[C@@H](n2ccc(=O)[nH]c2=O)[C@H](O)[C@@H]1O` [Compound 15, 6′-epi-D-Leu muraymycin analogue]: in assay [1], the IC50 was 10 ± 2 µM. Besides, the MIC in assay [2] is above 50 µg/mL.
As for `CC(C)C[C@H](NC(=O)[C@H](CCCCN)NC(=O)N[C@H](C(=O)O)C(C)C)C(=O)NCCCN[C@H](C[C@H]1O[C@@H](n2ccc(=O)[nH]c2=O)[C@H](O)[C@@H]1O)C(=O)O` [Compound 12, 5′-deoxy-6′-epi-L-Leu muraymycin analogue], in assay [1], the “fold weaker MraY inhibition than (6′S)-counterpart” value is recorded as 15 fold and the IC50 was determined as 38 ± 6 µM. Further, the MIC in assay [2] is above 50 µg/mL.
The like results for `CC(C)C[C@@H](NC(=O)[C@H](CCCCN)NC(=O)N[C@H](C(=O)O)C(C)C)C(=O)NCCCN[C@H](C[C@H]1O[C@@H](n2ccc(=O)[nH]c2=O)[C@H](O)[C@@H]1O)C(=O)O` [Compound 13, 5′-deoxy-6′-epi-D-Leu muraymycin analogue] were, in that order, 12 fold, 24 ± 9 µM and above 50 µg/mL.

In general, IC50 refers to the concentration needed to halve the response being measured. Usually MIC stands for the least concentration at which growth counts as inhibited. Low readings indicate inhibition by little substance, high ones a need for much substance.

(Values after paper PMC6278576, “Analogues of Muraymycin Nucleoside Antibiotics with Epimeric Uridine-Derived Core Structures” (Molecules, 2018).)
